In patent US9249087B2, “HDAC inhibitors and therapeutic methods using the same” (THE BOARD OF TRUSTEES OF THE UNIVERSITY OF ILLINOIS, priority 2011, dated 2016):
Counter-ions that a name gives are not always drawn. Like-named read-outs stand apart in the source and are kept apart here.

Legend:
Type in all cases: biochemical
Human HDAC6 = Human HDAC6 (Homo sapiens (Human), UniProt Q9UBN7); assay: HDAC6 fluorogenic peptide deacetylation inhibition assay; conditions: for HDAC6 Selectivity (HDAC1/HDAC6): ratio HDAC1 IC50/HDAC6 IC50; for BEI: binding efficiency index, BEI=pIC50/MW, MW in kDa
Sequence of Human HDAC6 (Q9UBN7 whole entry): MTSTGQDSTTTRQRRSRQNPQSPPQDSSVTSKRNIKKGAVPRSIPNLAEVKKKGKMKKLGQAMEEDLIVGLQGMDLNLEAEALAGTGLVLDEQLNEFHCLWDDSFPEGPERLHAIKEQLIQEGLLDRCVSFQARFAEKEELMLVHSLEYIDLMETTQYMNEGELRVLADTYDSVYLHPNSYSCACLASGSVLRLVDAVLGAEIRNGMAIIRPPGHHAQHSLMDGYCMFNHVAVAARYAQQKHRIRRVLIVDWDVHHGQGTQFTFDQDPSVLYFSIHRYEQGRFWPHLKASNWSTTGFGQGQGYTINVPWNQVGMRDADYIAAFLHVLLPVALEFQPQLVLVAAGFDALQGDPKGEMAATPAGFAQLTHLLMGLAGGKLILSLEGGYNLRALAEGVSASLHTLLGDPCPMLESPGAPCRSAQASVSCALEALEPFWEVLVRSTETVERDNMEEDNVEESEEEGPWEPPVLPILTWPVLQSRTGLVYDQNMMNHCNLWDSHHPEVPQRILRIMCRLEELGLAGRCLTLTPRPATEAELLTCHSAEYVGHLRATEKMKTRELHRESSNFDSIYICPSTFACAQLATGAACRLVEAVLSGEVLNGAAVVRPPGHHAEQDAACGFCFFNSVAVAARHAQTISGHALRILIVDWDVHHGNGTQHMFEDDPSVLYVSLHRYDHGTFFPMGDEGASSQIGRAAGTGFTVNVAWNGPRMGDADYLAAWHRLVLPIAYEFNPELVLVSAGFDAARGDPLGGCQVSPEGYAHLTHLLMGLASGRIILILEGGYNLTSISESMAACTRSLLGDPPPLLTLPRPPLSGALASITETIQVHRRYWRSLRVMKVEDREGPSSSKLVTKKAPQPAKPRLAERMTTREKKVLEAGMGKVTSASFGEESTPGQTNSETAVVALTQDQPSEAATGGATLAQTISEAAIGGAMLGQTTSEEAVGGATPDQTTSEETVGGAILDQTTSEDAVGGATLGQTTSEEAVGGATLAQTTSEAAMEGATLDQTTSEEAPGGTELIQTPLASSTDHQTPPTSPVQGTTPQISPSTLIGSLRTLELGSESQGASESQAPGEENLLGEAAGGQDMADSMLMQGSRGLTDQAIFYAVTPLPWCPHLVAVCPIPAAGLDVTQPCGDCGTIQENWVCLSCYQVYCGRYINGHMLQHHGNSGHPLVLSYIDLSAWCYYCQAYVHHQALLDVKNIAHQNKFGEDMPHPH

Human HDAC1 = Human HDAC1 (Homo sapiens (Human), UniProt Q13547); assay: HDAC1 fluorogenic peptide deacetylation inhibition assay
Sequence of Human HDAC1 (Q13547 whole entry, canonical isoform): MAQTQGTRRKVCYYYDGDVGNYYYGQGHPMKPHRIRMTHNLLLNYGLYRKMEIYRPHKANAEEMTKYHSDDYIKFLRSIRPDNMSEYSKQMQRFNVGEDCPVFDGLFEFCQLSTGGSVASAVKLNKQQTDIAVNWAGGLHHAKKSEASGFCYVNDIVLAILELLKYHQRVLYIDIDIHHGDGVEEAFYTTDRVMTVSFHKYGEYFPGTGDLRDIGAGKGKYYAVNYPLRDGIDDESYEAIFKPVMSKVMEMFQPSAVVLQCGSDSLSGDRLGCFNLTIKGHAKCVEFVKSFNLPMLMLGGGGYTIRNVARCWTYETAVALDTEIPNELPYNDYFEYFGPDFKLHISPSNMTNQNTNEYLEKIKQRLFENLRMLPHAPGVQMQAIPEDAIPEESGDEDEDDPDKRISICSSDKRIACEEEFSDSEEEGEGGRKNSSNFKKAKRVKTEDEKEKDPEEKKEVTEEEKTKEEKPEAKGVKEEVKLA

HDAC9 = HDAC9 (Homo sapiens (Human), UniProt Q9UKV0); assay: HDAC9 inhibition assay (Acetyl-Lys(trifluoroacetyl)-AMC substrate); conditions: average of two experiments; read-out: HDAC Isoform IC50 (μM) 9
Sequence of HDAC9 (Q9UKV0 whole entry, canonical isoform): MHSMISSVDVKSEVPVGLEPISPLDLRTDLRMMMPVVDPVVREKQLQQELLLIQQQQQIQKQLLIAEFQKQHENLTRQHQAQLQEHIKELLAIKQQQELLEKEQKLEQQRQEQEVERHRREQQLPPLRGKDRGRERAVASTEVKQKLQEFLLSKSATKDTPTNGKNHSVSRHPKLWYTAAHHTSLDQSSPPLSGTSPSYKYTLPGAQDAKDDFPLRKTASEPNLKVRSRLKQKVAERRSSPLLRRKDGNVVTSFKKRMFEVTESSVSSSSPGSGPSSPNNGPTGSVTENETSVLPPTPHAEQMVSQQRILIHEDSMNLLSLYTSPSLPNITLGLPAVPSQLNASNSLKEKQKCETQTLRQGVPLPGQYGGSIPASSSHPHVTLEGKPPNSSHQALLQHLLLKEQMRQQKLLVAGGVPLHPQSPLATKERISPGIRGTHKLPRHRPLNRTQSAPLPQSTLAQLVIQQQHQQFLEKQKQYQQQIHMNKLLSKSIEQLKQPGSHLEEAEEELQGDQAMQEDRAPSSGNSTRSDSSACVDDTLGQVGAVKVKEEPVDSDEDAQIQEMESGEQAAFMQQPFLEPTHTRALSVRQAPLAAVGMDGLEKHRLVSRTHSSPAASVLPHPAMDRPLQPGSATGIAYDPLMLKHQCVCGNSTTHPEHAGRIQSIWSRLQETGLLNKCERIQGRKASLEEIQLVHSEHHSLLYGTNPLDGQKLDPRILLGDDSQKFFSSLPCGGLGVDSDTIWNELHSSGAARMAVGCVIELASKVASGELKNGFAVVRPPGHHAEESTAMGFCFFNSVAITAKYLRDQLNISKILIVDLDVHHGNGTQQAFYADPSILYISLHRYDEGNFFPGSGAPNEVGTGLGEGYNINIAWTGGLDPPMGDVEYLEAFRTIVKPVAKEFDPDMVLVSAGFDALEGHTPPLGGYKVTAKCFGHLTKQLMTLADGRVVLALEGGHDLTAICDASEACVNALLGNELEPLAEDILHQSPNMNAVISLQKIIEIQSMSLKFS

HDAC8 = HDAC8 (Homo sapiens (Human), UniProt Q9BY41); assay: HDAC8 inhibition assay (fluorogenic diacyl peptide)
Sequence of HDAC8 (Q9BY41 whole entry, canonical isoform): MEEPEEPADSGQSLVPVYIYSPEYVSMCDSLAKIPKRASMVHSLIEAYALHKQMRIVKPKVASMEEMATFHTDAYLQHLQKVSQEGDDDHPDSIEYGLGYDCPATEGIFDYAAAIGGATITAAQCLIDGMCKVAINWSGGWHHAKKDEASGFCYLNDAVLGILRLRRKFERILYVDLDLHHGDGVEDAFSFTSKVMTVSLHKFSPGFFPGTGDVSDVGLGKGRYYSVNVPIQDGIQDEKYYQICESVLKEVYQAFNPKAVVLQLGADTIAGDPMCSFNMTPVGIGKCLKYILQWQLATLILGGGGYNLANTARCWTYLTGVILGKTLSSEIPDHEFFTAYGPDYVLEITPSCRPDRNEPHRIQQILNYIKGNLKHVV

HDAC2 = HDAC2 (Homo sapiens (Human), UniProt Q92769); assay: HDAC2 fluorogenic peptide deacetylation inhibition assay; conditions: average of two experiments; read-out: HDAC Isoform IC50 (μM) 2
Sequence of HDAC2 (Q92769 whole entry, canonical isoform): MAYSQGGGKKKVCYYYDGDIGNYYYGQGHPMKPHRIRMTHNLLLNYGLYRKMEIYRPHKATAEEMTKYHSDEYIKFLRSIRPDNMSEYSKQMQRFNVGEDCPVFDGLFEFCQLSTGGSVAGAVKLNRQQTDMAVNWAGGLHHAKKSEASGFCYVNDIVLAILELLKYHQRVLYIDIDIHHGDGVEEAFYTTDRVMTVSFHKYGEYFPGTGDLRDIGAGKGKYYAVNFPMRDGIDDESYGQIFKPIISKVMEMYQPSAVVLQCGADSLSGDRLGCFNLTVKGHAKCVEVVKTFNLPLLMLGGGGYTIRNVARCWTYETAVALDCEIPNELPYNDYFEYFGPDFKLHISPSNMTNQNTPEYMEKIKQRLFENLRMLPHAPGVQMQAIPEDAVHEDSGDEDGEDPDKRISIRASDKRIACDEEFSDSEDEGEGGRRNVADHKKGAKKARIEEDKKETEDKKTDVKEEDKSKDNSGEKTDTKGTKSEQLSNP

[1] = average of two experiments, read-out: HDAC Isoform IC50 (μM) 6
[2] = average of two experiments, read-out: HDAC Isoform IC50 (μM) 1
[3] = average of two experiments, read-out: HDAC Isoform IC50 (μM) 8
[4] = Table 3, mean of two experiments ± standard deviation, read-out: HDAC6 IC50
[5] = Table 3, mean of two experiments ± standard deviation, read-out: HDAC1 IC50
[6] = Table 3, mean of two experiments ± standard deviation, read-out: HDAC8 IC50

SMILES	IC50 (Human HDAC6; [1])	HDAC6 Selectivity (HDAC1/HDAC6) (Human HDAC6)	IC50 (Human HDAC1; [2])	other results
Cc1c(CN)c2ccccc2n1Cc1ccc(C(=O)NO)cc1	0.00146 µM	2116	3.09 µM	–
O=C(NO)c1ccc(Cn2ccc3ccccc32)cc1 [Compound 2, 4-((1H-Indol-1-yl)methyl)-N-hydroxybenzamide]	0.00975 µM	–	5.83 µM	IC50 (HDAC9): 8.16 µM; IC50 (HDAC8; [3]): 0.417 µM; IC50 (HDAC2): 9.19 µM
Cc1cc2ccccc2n1Cc1ccc(C(=O)NO)cc1 [Compound 4, N-Hydroxy-4-((2-methyl-1H-indol-1-yl)methyl)benzamide]	0.00251 µM	–	5.34 µM	selectivity against HDAC1 (Human HDAC6; HDAC6 vs HDAC1, running text): 2125 fold; IC50 (Human HDAC6; read-out: HDAC6 IC50): 0.0025 µM; IC50 (HDAC9): 18.3 µM; IC50 (HDAC8; [3]): 0.397 µM; IC50 (HDAC2): 8.14 µM
Cc1cn(Cc2ccc(C(=O)NO)cc2)c2ccccc12 [Compound 6, N-Hydroxy-4-((3-methyl-1H-indol-1-yl)methyl)benzamide]	0.00511 µM	–	6.79 µM	IC50 (HDAC9): 14.5 µM; IC50 (HDAC8; [3]): 0.911 µM; IC50 (HDAC2): 11.9 µM
Cc1c(C)n(Cc2ccc(C(=O)NO)cc2)c2ccccc12 [Compound 8, 4-((2,3-Dimethyl-1H-indol-1-yl)methyl)-N-hydroxybenzamide]	0.00408 µM	–	12.2 µM	–
O=C(NO)c1ccc(Cn2cc(Cc3ccccc3)c3ccccc32)cc1 [Compound 10, 4-((3-Benzyl-1H-indol-1-yl)methyl)-N-hydroxybenzamide]	0.0293 µM	–	13.2 µM	IC50 (HDAC8; [3]): 0.324 µM
O=C(NO)c1ccc(Cn2cnc3cncnc32)cc1 [Compound 12, 4-((9H-Purin-9-yl)methyl)-N-hydroxybenzamide]	0.00348 µM	–	0.94 µM	–
O=C(NO)c1ccc(Cn2cnc3ncncc32)cc1 [Compound 14, 4-((7H-Purin-7-yl)methyl)-N-hydroxybenzamide]	0.0142 µM	–	3.56 µM	–
CN1CCN(CCc2cn(Cc3ccc(C(=O)NO)cc3)c3ccccc23)CC1 [Compound 17, N-Hydroxy-4-{3-[2-(4-methyl-piperazin-1-yl)-ethyl]-indol-1-ylmethyl}-benzamide]	0.00294 µM	–	1.23 µM	IC50 (HDAC8; [3]): 0.174 µM
Cc1c(CN(C)C)c2ccccc2n1Cc1ccc(C(=O)NO)cc1 [Compound 21, 4-((3-((Dimethylamino)methyl)-2-methyl-1H-indol-1-yl)methyl)-N-hydroxybenzamide]	0.00146 µM	–	3.09 µM	–
NC(=O)c1ccc(Cn2ccc3ccccc32)cc1 [Compound 22, 4-((1H-Indol-1-yl)methyl)benzamide]	> 30 µM	–	> 30 µM	–
CC(=O)c1ccc(Cn2ccc3ccccc32)cc1 [Compound 23, 1-(4-((1H-Indol-1-yl)methyl)phenyl)ethanone]	> 30 µM	–	> 30 µM	–
O=C(NO)c1ccc(Cn2cnc3ccccc32)cc1 [Compound 27, 4-((1H-Benzo[d]imidazol-1-yl)methyl)-N-hydroxybenzamide.TFA]	0.0294 µM	–	8.54 µM	–
CS(=O)(=O)NCCc1cn(Cc2ccc(C(=O)NO)cc2)c2ccccc12 [Compound 30, N-Hydroxy-4-((3-(2-(methylsulfonamido)ethyl)-1H-indol-1-yl)methyl)benzamide]	0.00017 µM	–	0.623 µM	–
Cc1nc2ccccc2n1Cc1ccc(C(=O)NO)cc1 [Compound 32, N-hydroxy-4-((2-methyl-1H-benzo[d]imidazol-1-yl)methyl)benzamide]	0.0092 µM	–	8.79 µM	–
CC(=O)NCCCc1nc2ccccc2n1Cc1ccc(C(=O)NO)cc1 [Compound 36, 4-((2-(3-Acetamidopropyl)-1H-benzo[d]imidazol-1-yl)methyl)-N-hydroxybenzamide.TFA]	0.047 µM	–	14.7 µM	–
CN(C)CCc1nc2ccccc2n1Cc1ccc(C(=O)NO)cc1 [Compound 38, 4-((2-(2-(Dimethylamino)ethyl)-1H-benzo[d]imidazol-1-yl)methyl)-N-hydroxybenzamide]	0.126 µM	–	52.4 µM	–
CC(C)c1nc2ccccc2n1Cc1ccc(C(=O)NO)cc1 [Compound 39, N-Hydroxy-4-((2-isopropyl-1H-benzo[d]imidazol-1-yl)methyl)benzamide]	0.047 µM	–	27.7 µM	–
O=C(NO)c1ccc(Cn2cccc2)cc1 [Compound 41, 4-((1H-Pyrrol-1-yl)methyl)-N-hydroxybenzamide]	0.0313 µM	–	5.73 µM	–
O=C(NO)c1ccc(Cn2cccn2)cc1 [Compound 43, 4-((1H-Pyrazol-1-yl)methyl)-N-hydroxybenzamide]	0.0109 µM	–	1.47 µM	–
O=C(NO)c1ccc(Cc2ccncc2)cc1 [Compound 45, N-Hydroxy-4-(pyridin-4-ylmethyl)benzamide]	0.0358 µM	–	6.47 µM	–
CN(C)c1ccc(Cc2ccc(C(=O)NO)cc2)cc1 [Compound 47, 4-(4-(Dimethylamino)benzyl)-N-hydroxybenzamide]	0.0119 µM	–	6.87 µM	–
CN(C)c1cccc(Cc2ccc(C(=O)NO)cc2)c1 [Compound 49, 4-(3-(Dimethylamino)benzyl)-N-hydroxybenzamide]	0.0701 µM	–	12.2 µM	–

SMILES	IC50 (Human HDAC6; [1])	HDAC6 Selectivity (HDAC1/HDAC6) (Human HDAC6)	IC50 (Human HDAC1; [2])	other results
CCN(CC)Cc1ccc(C(=O)NO)cc1 [Compound 51, 4-((Diethylamino)methyl)-N-hydroxybenzamide]	6.28 µM	–	> 30 µM	IC50 (HDAC8; [3]): 9.43 µM
CC(C)N(Cc1ccc(C(=O)NO)cc1)C(C)C [Compound 53, 4-((Diisopropylamino)methyl)-N-hydroxybenzamide]	0.124 µM	–	23.8 µM	IC50 (HDAC8; [3]): 1.92 µM
O=C(NO)c1ccc(CN(c2ccccc2)c2ccccc2)cc1 [Compound 55, 4-((Diphenylamino)methyl)-N-hydroxybenzamide]	4.5 µM	–	6.66 µM	selectivity for HDAC6 vs HDAC8 (Human HDAC6): over 500 fold; IC50 (HDAC8; [3]): 2.38 µM
O=C(NO)c1ccc(CN2CCCC2)cc1 [Compound 57, N-Hydroxy-4-(pyrrolidin-1-ylmethyl)benzamide.TFA]	0.54 µM	–	29 µM	IC50 (HDAC8; [3]): 1.2 µM
COC[C@@H]1CCCN1Cc1ccc(C(=O)NO)cc1 [Compound 59, (S)-N-Hydroxy-4-((2-(methoxymethyl)pyrrolidin-1-yl)methyl)benzamide.TFA]	0.15 µM	–	27.9 µM	IC50 (HDAC8; [3]): 1.82 µM
COC[C@H]1CCCN1Cc1ccc(C(=O)NO)cc1 [Compound 61]	1.25 µM	–	> 30 µM	IC50 (HDAC8; [3]): 5.59 µM
O=C(NO)c1ccc(Cn2ccc3ccccc32)cc1 [drawing 136]	–	598	–	IC50 (HDAC9): 8.16 µM; IC50 (HDAC2): 9.19 µM
Cc1cc2ccccc2n1Cc1ccc(C(=O)NO)cc1 [drawing 137]	–	2127	–	IC50 (HDAC9): 18.3 µM; IC50 (HDAC2): 8.14 µM
Cc1cn(Cc2ccc(C(=O)NO)cc2)c2ccccc12 [drawing 138]	–	1329	–	IC50 (HDAC9): 14.5 µM; IC50 (HDAC2): 11.9 µM
O=C(NO)c1ccc(Cn2cc(Cc3ccccc3)c3ccccc32)cc1 [drawing 140]	–	451	–	–
CN1CCN(CCc2cn(Cc3ccc(C(=O)NO)cc3)c3ccccc23)CC1 [drawing 142]	0.00294 µM	418	1.23 µM	IC50 (HDAC8; [3]): 0.174 µM
O=C(NO)c1ccc(Cn2cnc3cncnc32)cc1 [drawing 143]	–	270	–	–
O=C(NO)c1ccc(Cn2cnc3ncncc32)cc1 [drawing 144]	–	251	–	–
O=C(NO)c1ccc(Cc2ccncc2)cc1 [drawing 145]	–	181	–	–
CN(C)c1ccc(Cc2ccc(C(=O)NO)cc2)cc1 [drawing 146]	–	577	–	–
O=C(NO)c1ccc(Cn2cccc2)cc1 [drawing 147]	–	183	–	–
O=C(NO)c1ccc(Cn2cccn2)cc1 [drawing 148]	–	135	–	–
O=C(NO)c1ccc(CN2CCCC2)cc1 [drawing 150]	–	54	–	–
CCN(CC)Cc1ccc(C(=O)NO)cc1 [drawing 153]	–	>5	–	–
O=C(NO)c1ccc(Cn2ccc3ccccc32)cc1 [drawing 157]	–	–	–	IC50 (Human HDAC6; [4]): 0.0097 ± 0.0003 µM; BEI (Human HDAC6): 30.1; IC50 (Human HDAC1; [5]): 5.83 ± 0.7 µM; IC50 (HDAC8; [6]): 0.417 ± 0.04 µM
Cc1cc2ccccc2n1Cc1ccc(C(=O)NO)cc1 [drawing 158]	–	–	–	IC50 (Human HDAC6; [4]): 0.0025 ± 0.0004 µM; BEI (Human HDAC6): 30.7; IC50 (Human HDAC1; [5]): 5.34 ± 0.16 µM; IC50 (HDAC8; [6]): 0.397 ± 0.099 µM
Cc1cn(Cc2ccc(C(=O)NO)cc2)c2ccccc12 [drawing 159]	–	–	–	IC50 (Human HDAC6; [4]): 0.0051 ± 0.0008 µM; BEI (Human HDAC6): 29.6; IC50 (Human HDAC1; [5]): 6.79 ± 0.29 µM; IC50 (HDAC8; [6]): 0.911 ± 0.042 µM
O=C(NO)c1ccc(CN(c2ccccc2)c2ccccc2)cc1 [drawing 162]	–	–	–	BEI (Human HDAC6): 26.3; IC50 (Human HDAC1; [5]): 6.66 ± 0.51 µM; IC50 (HDAC8; [6]): 2.38 ± 0.25 µM
